Results: ChEMBL document CHEMBL2311342, “Inhibitors of the Yersinia protein tyrosine phosphatase through high throughput and virtual screening approaches” (Bioorg Med Chem Lett, 2013)

experiment: Inhibition of Yersinia pestis YopH catalytic domain (residues 163-468) using pNPP substrate

**Q.** With `Cn1nc(-c2ccc(Cl)cc2)nc2c(=O)n(C)c(=O)nc1-2` as the molecule, how does the IC50 read?
**A.** Its IC50 is 1.28 µM.

**Q.** For `Cc1c(N=c2c(=O)c3ccccc3c2=O)c(=O)n(-c2ccccc2)n1C`, which IC50 is on record?
**A.** The IC50 was 4.01 µM.

**Q.** For `O=C(O)c1ccc(-c2nc(-c3ccc(-c4ccccc4)cc3)c(-c3ccc(-c4ccccc4)cc3)[nH]2)cc1`, which IC50 is on record?
**A.** The IC50 was 2.15 µM.

**Q.** With `Cn1nc(-c2cccs2)nc2c(=O)n(C)c(=O)nc1-2` as the molecule, how does the IC50 read?
**A.** The IC50 was 0.88 µM.

**Q.** For `CN1C(=O)C(=Cc2cn(Cc3cnc(Cl)s3)c3ccccc23)C(=O)N(C)C1=O`, which IC50 is on record?
**A.** The IC50 was 4.61 µM.

**Q.** For `O=C(O)c1cc(-c2ccc(/C=N/Nc3nc4nonc4nc3Nc3ccc(F)cc3)o2)ccc1O`, which IC50 is on record?
**A.** The IC50 was 0.38 µM.

**Q.** For `O=C(COc1ccccc1)N1CCN(S(=O)(=O)c2ccccc2[N+](=O)[O-])CC1`, which IC50 is on record?
**A.** The IC50 was 0.98 µM.

**Q.** Which IC50 does the source give for `O=C1Nc2ccc(Br)cc2/C1=C1/SC(=S)N(c2cccc(C(F)(F)F)c2)C1=O` here?
**A.** The IC50 was 1.22 µM.

**Q.** Which IC50 does the source give for `CCCCN1C(=O)/C(=C2\SC(N3CCC(C(N)=O)CC3)=NC2=O)c2ccccc21` here?
**A.** Its IC50 is 1.68 µM.

**Q.** Which IC50 does the source give for `O=C1NC(=O)C(=Cc2ccc(OCc3ccc([N+](=O)[O-])cc3)c(Br)c2)C(=O)N1` here?
**A.** Its IC50 is 1.89 µM.

**Q.** For `O=C(O)c1ccc(N2C(=O)c3ccc(-c4nc5ccccc5c(=O)o4)cc3C2=O)cc1`, which IC50 is on record?
**A.** Its IC50 is 1.92 µM.

**Q.** For `Cc1c(/C(=N/OC(=O)c2ccc(F)cc2)C(F)(F)F)cc(-c2ccc(S(C)(=O)=O)cc2)n1-c1ccc(F)cc1`, which IC50 is on record?
**A.** Its IC50 is 2.35 µM.

**Q.** For `COc1cc(/C=C2/N=C(c3ccc(Cl)c(Cl)c3)OC2=O)cc(OC)c1OC`, which IC50 is on record?
**A.** Its IC50 is 4.48 µM.

**Q.** Which IC50 does the source give for `NC(=S)N1N=C(c2ccc([N+](=O)[O-])cc2)/C(=N\Nc2ccc(S(=O)(=O)O)cc2)C1=O` here?
**A.** The IC50 was 4.61 µM.

**Q.** For `O=C1NC(=S)NC(=O)C1=Cc1ccc(N2CCc3ccccc3C2)c([N+](=O)[O-])c1`, which IC50 is on record?
**A.** Its IC50 is 4.73 µM.

**Q.** Which IC50 does the source give for `O=C1OC(c2ccc(Cl)cc2)=N/C1=C/Nc1ccc(O)c(C(=O)O)c1` here?
**A.** The IC50 was 8.1 µM.

**Q.** Which IC50 does the source give for `CN1C(=O)C(=Cc2ccc(OCc3c(F)cccc3Cl)cc2)C(=O)N(C)C1=O` here?
**A.** The IC50 was 9.89 µM.
